Nine molecules from patent US20140128352A1, “COMPOUNDS AND METHODS FOR MODULATING MITOCHONDRIAL METABOLISM AND REACTIVE OXYGEN SPECIES PRODUCTION” (Buck Institute for Research on Aging, priority 2012, published 2014) can be followed below.

Where two headings read alike, the source gives them in different places.

Assay [1] deals with T1, outer ubiquinone binding site of complex III (IIIQO) (Rattus norvegicus, UniProt P00159+P20788).
T1 construct: freshly isolated muscle mitochondria were assayed; from tissue; host or cells: rat skeletal muscle mitochondria (Wistar, Harlan Laboratories)
Briefly: High-throughput screen: ROS production from outer ubiquinone binding site of complex III (IIIQO). Type of assay: biochemical. As to conditions: percent change in ROS from DMSO controls; for IIIQO: Table 8.

Assay [2] concerns mitochondrial membrane potential (ΔΨm). Briefly: Membrane potential (ΔΨm) counterscreen with TMRM. As to conditions: malate, nigericin.
Assay [3] deals with T2, glycerol-3-phosphate dehydrogenase (GPDH) (Rattus norvegicus, UniProt P35571).
T2 construct: The activity of GPDH in intact mitochondria (0.3 mg/mL) was measured; from tissue; host or cells: rat skeletal muscle mitochondria (Wistar, Harlan Laboratories)
T2 sequence (P35571 43-727): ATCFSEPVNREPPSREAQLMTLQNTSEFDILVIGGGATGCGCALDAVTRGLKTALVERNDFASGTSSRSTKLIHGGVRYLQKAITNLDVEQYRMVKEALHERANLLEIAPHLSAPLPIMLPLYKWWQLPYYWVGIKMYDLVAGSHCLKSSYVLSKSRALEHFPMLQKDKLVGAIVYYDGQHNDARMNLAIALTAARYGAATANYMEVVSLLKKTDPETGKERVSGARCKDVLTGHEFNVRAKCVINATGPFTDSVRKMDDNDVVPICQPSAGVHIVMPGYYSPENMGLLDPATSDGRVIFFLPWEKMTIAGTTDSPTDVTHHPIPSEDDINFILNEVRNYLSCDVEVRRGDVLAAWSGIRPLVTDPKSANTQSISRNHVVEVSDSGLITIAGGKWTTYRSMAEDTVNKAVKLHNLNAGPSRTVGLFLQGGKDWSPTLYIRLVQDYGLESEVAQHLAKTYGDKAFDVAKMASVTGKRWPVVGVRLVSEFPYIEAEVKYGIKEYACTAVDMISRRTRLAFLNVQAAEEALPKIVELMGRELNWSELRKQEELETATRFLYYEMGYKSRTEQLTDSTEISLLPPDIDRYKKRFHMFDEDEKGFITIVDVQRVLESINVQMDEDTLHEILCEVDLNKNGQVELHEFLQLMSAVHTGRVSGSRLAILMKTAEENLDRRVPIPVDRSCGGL
As to the kind of experiment: High-throughput screen: ROS production from glycerol-3-phosphate dehydrogenase (GPDH). Type of assay: biochemical. As to conditions: percent change in ROS from DMSO controls; for inhibition: Table 7. The arrangement: inhibition: dose or concentration left out as unconfirmed.

In assay [4] the target is T3, succinate dehydrogenase/complex II (SDH) (Rattus norvegicus, UniProt P21913+Q641Z9+Q6PCT8+Q920L2).
T3 construct: freshly isolated muscle mitochondria were assayed; from tissue; host or cells: rat skeletal muscle mitochondria (Wistar, Harlan Laboratories)
Briefly: High-throughput screen: ROS production from succinate dehydrogenase/complex II (SDH). Type of assay: biochemical. As to conditions: percent change in ROS from DMSO controls; for inhibition at 2.5 µM: Table 7.

Assay [5] relates to ubiquinone binding site of complex I (IQ). Briefly: High-throughput screen: ROS production from ubiquinone binding site of complex I (IQ), isolated skeletal muscle mitochondria. As to conditions: percent change in ROS from DMSO controls. Format: biochemical, rat.
Protocol: Skeletal muscle mitochondria were isolated from 5-8 week old female Wistar rats (Harlan Laboratories). Minced muscle was homogenized in buffer containing bacterial protease Type VIII prior to differential centrifugation to separate mitochondria from other tissue components. Unless otherwise stated, freshly isolated muscle mitochondria were assayed in buffer containing 120 mM KCl, 5 mM HEPES, 1 mM EGTA, 0.3% (w/v) bovine serum albumin. Where indicated, CaCl2 was added to yield a final free concentration of 250 nM calcium at pH 7.0 at 37° C.
Compounds (10 mM in DMSO) were randomly selected from a library of 24,000 compounds obtained from ChemBridge and curated by the lab of Robert Hughes at the Buck Institute. Master screening plates were prepared using a Biomek FX liquid handling workstation (Beckman) to transfer 1 μL of each compound into individual wells on 96-well storage plates (80 compounds per plate). Master plates were sealed with foil and stored at −80° C. Just prior to use, plates were brought to room temperature and diluted 300-fold with standard buffer (13.3X=33.3 μM). To monitor the performance of each assay throughout screening and to provide intra-plate normalization reference points, DMSO negative controls and known mitochondrial inhibitor positive controls were included on each Master compound plate.
Total amounts of superoxide and H2O2 production were determined fluorometrically as H2O2, without distinguishing between them, in the presence of exogenous superoxide dismutase (25 units/mL final), horseradish peroxidase (1 unit/mL final), and Amplex UltraRed (25 μM final) as described (Affourtit, C. et al. (2012) Measurement of proton leak and electron leak in isolated mitochondria. Methods Mol. Biol. 810: 165-82). Just prior to use, a bulk 3.3X solution was made in standard buffer and distributed into a 2 mL deep well 96-well transfer plate.
To assess the effects of a compound on ROS production from the ubiquinone binding site of complex I (IQ), Start Solution containing 5 mM succinate was distributed into standard 96-well transfer plates. A Biomek FX workstation was programmed to dispense solutions into black 96-well assay plates. Solutions were dispensed to all assay plates in the following order: ROS Detection solution described in Example 3, Mitochondria solution described in Example 1 to a final concentration of 0.1 mg/ml, and Compound dilutions described in Example 2. Duplicate assay plates were made and each was initiated by the addition of 3.3X Start solution containing 5 mM succinate. Plates were incubated in the dark at room temperature for 30-40 minutes before acquiring endpoint fluorescence using a Victor 3V plate reader (Perkin Elmer) equipped with 550/590 nm excitation/emission filters.
The fluorescence values in each well were scaled as the percent change from the intra-plate DMSO controls with the appropriate inhibitor positive controls defined as −100%. Following initial scaling, intra-plate normalized values were subjected to Tukey's two-way median polish to remove row and column dependent positional effects (Malo et al, 2006).
In assay [6] the target is T4, flavin binding site of complex I (IF) (Rattus norvegicus, UniProt Q5XIH3).
T4 construct: freshly isolated muscle mitochondria were assayed; from tissue; host or cells: rat skeletal muscle mitochondria (Wistar, Harlan Laboratories)
Briefly: High-throughput screen: ROS production from flavin binding site of complex I (IF). Format: biochemical.

The mark [7] stands for this setting: Table 3, 5 mM glutamate, 5 mM malate, 4 μM rotenone, compounds 2.5 μM, percent change from DMSO, positive control −100%, read-out: % Reduction in ROS production (IF).
[8] abbreviates: Table 7, percent change in ROS from DMSO controls, read-out: IF.
[9] abbreviates: Table 8, percent change in ROS from DMSO controls.
The mark [10] stands for this setting: Table 9, percent change in ROS from DMSO controls.

T4 sequence (Q5XIH3 21-464 limits assumed, one chain of several): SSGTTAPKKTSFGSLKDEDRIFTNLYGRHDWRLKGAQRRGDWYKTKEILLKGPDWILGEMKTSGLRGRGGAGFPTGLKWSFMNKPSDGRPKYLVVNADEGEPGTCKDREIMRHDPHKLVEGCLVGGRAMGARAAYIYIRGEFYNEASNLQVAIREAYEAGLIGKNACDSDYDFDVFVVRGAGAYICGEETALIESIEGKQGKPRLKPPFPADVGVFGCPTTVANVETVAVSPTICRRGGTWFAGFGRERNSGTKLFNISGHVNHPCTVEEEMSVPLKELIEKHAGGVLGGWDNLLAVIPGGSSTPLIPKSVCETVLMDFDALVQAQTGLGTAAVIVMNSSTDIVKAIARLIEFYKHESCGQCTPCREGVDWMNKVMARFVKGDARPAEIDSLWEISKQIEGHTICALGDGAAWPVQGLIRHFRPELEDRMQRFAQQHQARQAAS
T3 sequence (Q920L2 35-656): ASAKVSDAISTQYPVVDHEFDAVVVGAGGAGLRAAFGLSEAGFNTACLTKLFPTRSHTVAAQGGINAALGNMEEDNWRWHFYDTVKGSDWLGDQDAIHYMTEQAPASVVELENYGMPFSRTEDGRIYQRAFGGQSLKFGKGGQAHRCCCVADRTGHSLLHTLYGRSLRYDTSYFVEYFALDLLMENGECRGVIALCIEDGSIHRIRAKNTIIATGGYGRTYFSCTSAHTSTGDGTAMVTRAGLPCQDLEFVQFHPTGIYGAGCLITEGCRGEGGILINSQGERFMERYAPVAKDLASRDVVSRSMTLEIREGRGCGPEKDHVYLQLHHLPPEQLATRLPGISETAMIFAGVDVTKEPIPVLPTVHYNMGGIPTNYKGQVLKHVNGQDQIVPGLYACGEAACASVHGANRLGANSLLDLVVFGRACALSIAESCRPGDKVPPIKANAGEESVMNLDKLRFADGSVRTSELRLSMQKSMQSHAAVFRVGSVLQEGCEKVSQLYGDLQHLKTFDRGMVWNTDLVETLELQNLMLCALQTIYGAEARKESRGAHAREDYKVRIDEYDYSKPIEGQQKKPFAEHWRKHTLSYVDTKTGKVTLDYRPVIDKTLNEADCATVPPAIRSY
T3 sequence (P21913 31-282): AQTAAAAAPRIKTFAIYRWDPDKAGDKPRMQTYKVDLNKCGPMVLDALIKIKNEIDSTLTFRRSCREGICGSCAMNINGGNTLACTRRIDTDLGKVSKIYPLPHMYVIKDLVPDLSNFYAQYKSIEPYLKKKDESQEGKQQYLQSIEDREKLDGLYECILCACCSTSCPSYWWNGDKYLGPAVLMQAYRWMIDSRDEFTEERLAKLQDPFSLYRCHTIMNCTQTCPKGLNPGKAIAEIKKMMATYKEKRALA
T3 sequence (Q641Z9 30-169 limits assumed): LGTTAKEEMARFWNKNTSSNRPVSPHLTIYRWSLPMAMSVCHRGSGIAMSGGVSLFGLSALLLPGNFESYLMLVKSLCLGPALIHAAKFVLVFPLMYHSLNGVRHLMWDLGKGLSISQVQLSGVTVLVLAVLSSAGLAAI
T3 sequence (Q6PCT8 57-159): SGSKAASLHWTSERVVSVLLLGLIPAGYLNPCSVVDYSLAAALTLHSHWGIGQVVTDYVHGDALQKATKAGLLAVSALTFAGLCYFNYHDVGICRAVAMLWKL

Take `CCCN(CCO)Cc1ccc2c(c1)c1ccccc1n2CC` [Compound 15]: the inhibition at 2.5 µM was 7.5% in assay [1] (Table 7, read-out: IIIQO); 7.5% in assay [1] (Table 9, read-out: IIIQo); 2.7% in assay [4]; 27.6% in assay [6] (setting [7]); 27.6% in assay [6] (setting [8]). Besides, the IIIQO in assay [1] is −7.5. The ΔΨm is −0.9 in assay [2] (Table 8, glutamate) and −0.9 in assay [2] (Table 9, glutamate). The inhibition in assay [3] was found to be 2.5%. The GPDH in assay [3] (Table 8) and in assay [3] (Table 9) was −2.5 each time. For the same molecule, the SDH in assay [4] (Table 8) and in assay [4] (Table 9) was −2.7 in each case. The IQ in assay [5] (Table 7), in assay [5] (Table 8) and in assay [5] (Table 9) was −0.1 each time. Besides, the IF in assay [6] (setting [9]) and in assay [6] (setting [10]) was −27.6 in each case.

Take `COc1ccccc1/C=C/c1nc(O)nc(O)c1[N+](=O)[O-]` [Compound 16]: the inhibition at 2.5 µM in assay [1] (Table 7, read-out: IIIQO) is -6.6%; in assay [1] (Table 9, read-out: IIIQo) it was -6.6%; in assay [4] it was -4.2%; in assay [6] (setting [7]), 26.7%; in assay [6] (setting [8]) it was 26.7%. Moreover, the IIIQO in assay [1] is listed as 6.6. Besides, the ΔΨm in assay [2] (Table 8, glutamate) is −0.3; in assay [2] (Table 9, glutamate), −0.3. The inhibition in assay [3] is 0.6%. In addition, the GPDH in assay [3] (Table 8) and in assay [3] (Table 9) was −0.6 each time. Also, the SDH in assay [4] (Table 8) and in assay [4] (Table 9) was 4.2 throughout. For the same molecule, the IQ in assay [5] (Table 7), in assay [5] (Table 8) and in assay [5] (Table 9) was −5.4 each time. Besides, the IF in assay [6] (setting [9]) and in assay [6] (setting [10]) was −26.7 in each case.

Regarding `COc1cccc(/C=C/C(=O)c2c(O)cc(C)oc2=O)c1O` [Compound 17], the inhibition at 2.5 µM in assay [1] (Table 7, read-out: IIIQO) was 6%; in assay [1] (Table 9, read-out: IIIQo), 6%; in assay [4] it was 3.4%; in assay [6] (setting [7]) it was 26%; in assay [6] (setting [8]), 26%. In assay [1], this molecule showed an IIIQO of −6.0. Moreover, the ΔΨm is 0.3 in assay [2] (Table 8, glutamate) and 0.3 in assay [2] (Table 9, glutamate). In addition, in assay [3], the inhibition turned out to be 3.6%. For the same molecule, the GPDH in assay [3] (Table 8) and in assay [3] (Table 9) was −3.6 in each case. Further, the SDH in assay [4] (Table 8) and in assay [4] (Table 9) was −3.4 in each case. Moreover, the IQ in assay [5] (Table 7), in assay [5] (Table 8) and in assay [5] (Table 9) was −7.4 each time. In addition, the IF in assay [6] (setting [9]) and in assay [6] (setting [10]) was −26.0 in each case.

As for `O=C(Nc1ccccc1C(=O)O)c1ccccc1` [Compound 18], the inhibition at 2.5 µM in assay [1] (Table 7, read-out: IIIQO) is -5.4%; in assay [1] (Table 9, read-out: IIIQo), -5.4%; in assay [4] it was 0.3%; in assay [6] (setting [7]), 25.8%; in assay [6] (setting [8]), 25.8%. In assay [1], this molecule displayed an IIIQO of 5.4. Moreover, the ΔΨm in assay [2] (Table 8, glutamate) is −0.7; in assay [2] (Table 9, glutamate), −0.7. For the same molecule, in assay [3], the inhibition was found to be 0.6%. The GPDH in assay [3] (Table 8) and in assay [3] (Table 9) was −0.6 in each case. The SDH in assay [4] (Table 8) and in assay [4] (Table 9) was −0.3 each time. Also, the IQ in assay [5] (Table 7), in assay [5] (Table 8) and in assay [5] (Table 9) was −1.0 each time. In addition, the IF in assay [6] (setting [9]) and in assay [6] (setting [10]) was −25.8 in each case.

As for `O=C(Nc1ccccc1F)[C@@H]1C2C=CC(C2)[C@@H]1C(=O)O` (stereo partly drawn) [Compound 20], the inhibition at 2.5 µM was -1.2% in assay [1] (Table 7, read-out: IIIQO); -1.2% in assay [1] (Table 9, read-out: IIIQo); 0.7% in assay [4]; 24% in assay [6] (setting [7]); 24% in assay [6] (setting [8]). The molecule also showed an IIIQO in assay [1] of 1.2. The ΔΨm in assay [2] (Table 8, glutamate) is −0.3; in assay [2] (Table 9, glutamate) it was −0.3. Further, the inhibition in assay [3] came out at 1.7%. The GPDH in assay [3] (Table 8) and in assay [3] (Table 9) was −1.7 throughout. Moreover, the SDH in assay [4] (Table 8) and in assay [4] (Table 9) was −0.7 throughout. In addition, the IQ in assay [5] (Table 7), in assay [5] (Table 8) and in assay [5] (Table 9) was 0.2 in each case. For the same molecule, the IF in assay [6] (setting [9]) and in assay [6] (setting [10]) was −24.0 in each case.

As for `Cc1ccc(C(C)C)c(OCC(O)CN2CCN(Cc3ccccc3)CC2)c1.Cl.Cl` (stereo not drawn) [Compound 21], the inhibition at 2.5 µM is 9.9% in assay [1] (Table 7, read-out: IIIQO); 9.9% in assay [1] (Table 9, read-out: IIIQo); -1.7% in assay [4]; 23% in assay [6] (setting [7]); 23% in assay [6] (setting [8]). The IIIQO in assay [1] was −9.9. In addition, the ΔΨm in assay [2] (Table 8, glutamate) was −0.3; in assay [2] (Table 9, glutamate), −0.3. Also, in assay [3], the inhibition came to 1.8%. Also, the GPDH in assay [3] (Table 8) and in assay [3] (Table 9) was −1.8 in each case. In addition, the SDH in assay [4] (Table 8) and in assay [4] (Table 9) was 1.7 each time. Moreover, the IQ in assay [5] (Table 7), in assay [5] (Table 8) and in assay [5] (Table 9) was 0.0 throughout. Moreover, the IF in assay [6] (setting [9]) and in assay [6] (setting [10]) was −23.0 throughout.

With `CCN1CCN(C2CCC(C(C)(C)C)CC2)CC1` (stereo not drawn) [Compound 22], the inhibition at 2.5 µM in assay [1] (Table 7, read-out: IIIQO) was 6.2%; in assay [1] (Table 9, read-out: IIIQo) it was 6.2%; in assay [4] it was -5.5%; in assay [6] (setting [7]) it was 22.1%; in assay [6] (setting [8]), 22.1%. Also, the IIIQO in assay [1] is given as −6.2. Moreover, the ΔΨm in assay [2] (Table 8, glutamate) was −0.9; in assay [2] (Table 9, glutamate) it was −0.9. Further, the inhibition in assay [3] stood at 2.6%. For the same molecule, the GPDH in assay [3] (Table 8) and in assay [3] (Table 9) was −2.6 each time. In addition, the SDH in assay [4] (Table 8) and in assay [4] (Table 9) was 5.5 in each case. Also, the IQ in assay [5] (Table 7), in assay [5] (Table 8) and in assay [5] (Table 9) was −0.4 each time. The IF in assay [6] (setting [9]) and in assay [6] (setting [10]) was −22.1 in each case.

Take `CN(C)CCN(Cc1ccccc1)Cc1ccccc1Br` [Compound 23]: the inhibition at 2.5 µM in assay [1] (Table 7, read-out: IIIQO) was 8.8%; in assay [1] (Table 9, read-out: IIIQo), 8.8%; in assay [4], -1.7%; in assay [6] (setting [7]), 21.1%; in assay [6] (setting [8]), 21.1%. Moreover, in assay [1], the IIIQO was −8.8. Moreover, the ΔΨm is −1.5 in assay [2] (Table 8, glutamate) and −1.5 in assay [2] (Table 9, glutamate). Moreover, the inhibition in assay [3] was determined as 1%. Also, the GPDH in assay [3] (Table 8) and in assay [3] (Table 9) was −1.0 throughout. In addition, the SDH in assay [4] (Table 8) and in assay [4] (Table 9) was 1.7 each time. In addition, the IQ in assay [5] (Table 7), in assay [5] (Table 8) and in assay [5] (Table 9) was −2.7 in each case. The IF in assay [6] (setting [9]) and in assay [6] (setting [10]) was −21.1 in each case.

Take `O=C(COc1ccc(Cl)cc1Cl)Nc1ccc(F)cc1F` [Compound 24]: the inhibition at 2.5 µM in assay [1] (Table 7, read-out: IIIQO) stood at 1.3%; in assay [1] (Table 9, read-out: IIIQo) it was 1.3%; in assay [4] it was 1.5%; in assay [6] (setting [7]), 19.8%; in assay [6] (setting [8]) it was 19.8%. The same molecule returned an IIIQO in assay [1] of −1.3. The ΔΨm in assay [2] (Table 8, glutamate) is 0.1; in assay [2] (Table 9, glutamate) it was 0.1. For the same molecule, the inhibition in assay [3] stood at 2%. In addition, the GPDH in assay [3] (Table 8) and in assay [3] (Table 9) was −2.0 each time. In addition, the SDH in assay [4] (Table 8) and in assay [4] (Table 9) was −1.5 throughout. Also, the IQ in assay [5] (Table 7), in assay [5] (Table 8) and in assay [5] (Table 9) was −1.0 throughout. The IF in assay [6] (setting [9]) and in assay [6] (setting [10]) was −19.8 in each case.
